The target of this experiment is HIV-1 protease (Human immunodeficiency virus, UniProt O90785). The experiment in a line: Protease Inhibtion Assay. To be noted: pH 5.5. An excerpt: Protease inhibition fluorescence-based assay using cyclic ureas to inhibit HIV-protease.

As a reminder, the Ki is the dissociation constant of the complex between target and ligand, obtained from inhibition or displacement. Low readings indicate higher affinity, high ones lower affinity.

HIV-1 protease, sequence (O90785 whole entry): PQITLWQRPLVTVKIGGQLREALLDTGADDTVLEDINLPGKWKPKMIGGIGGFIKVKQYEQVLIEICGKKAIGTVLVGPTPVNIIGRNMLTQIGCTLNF

`CC(C)Nc1[nH]nc2ccc(CN3C(=O)N(Cc4ccc5n[nH]c(NC(C)C)c5c4)[C@H](Cc4ccccc4)[C@H](O)[C@@H](O)[C@H]3Cc3ccccc3)cc12` [3-alkylaminoindazole cyclic urea, (i-Pr)] had a Ki of 0.09 nM.
As for `O=C1N(Cc2ccc(CO)cc2)[C@H](Cc2ccccc2)[C@H](O)[C@@H](O)[C@@H](Cc2ccccc2)N1Cc1ccc(CO)cc1` [(4R,5S,6S,7R)-4,7-dibenzyl-5,6-dihydroxy-1,3-bis({[4-(hydroxymethyl)phenyl]methyl})-1,3-diazepan-2-one], the figure is 0.31 nM; as for `CCCCN1C(=O)N(Cc2ccc3[nH]nc(N)c3c2)[C@H](Cc2ccccc2)[C@H](O)[C@@H](O)[C@H]1Cc1ccccc1` [(4R,5S,6S,7R)-1-(3-Amino-1H-indazol-5-ylmethyl)-4,7-dibenzyl-3-butyl-5,6-dihydroxy-[1,3]diazepan-2-one], 0.021 nM; as for `Nc1n[nH]c2ccc(CN3C(=O)N(CC4CCC4)[C@H](Cc4ccccc4)[C@H](O)[C@@H](O)[C@H]3Cc3ccccc3)cc12` [Cyclobutylmethyl cyclic urea], 0.016 nM.
Under `CCCCCN1C(=O)N(Cc2ccc3[nH]nc(N)c3c2)[C@H](Cc2ccccc2)[C@H](O)[C@@H](O)[C@H]1Cc1ccccc1` [n-Pentyl cyclic urea] stands 0.041 nM; under `O=C1N(Cc2ccc3[nH]ncc3c2)[C@H](Cc2ccccc2)[C@H](O)[C@@H](O)[C@@H](Cc2ccccc2)N1Cc1ccc2[nH]ncc2c1` [(4R,5S,6S,7R)-4,7-dibenzyl-5,6-dihydroxy-1,3-bis(1H-indazol-5-ylmethyl)-1,3-diazepan-2-one], 0.018 nM; under `Nc1n[nH]c2ccc(CN3C(=O)N(Cc4ccc5[nH]nc(N)c5c4)[C@H](Cc4ccccc4)[C@H](O)[C@@H](O)[C@H]3Cc3ccccc3)cc12` [3-Aminoindazole, 2], 0.01 nM.
Take `Nc1cccc(CN2C(=O)N(Cc3cccc(N)c3)[C@H](Cc3ccccc3)[C@H](O)[C@@H](O)[C@H]2Cc2ccccc2)c1`: affinity was put at a Ki of 0.3 nM.
`Nc1n[nH]c2ccc(CN3C(=O)N(Cc4ccc5[nH]nc(N)c5c4)[C@H](Cc4ccccc4)[C@H](O)[C@@H](O)[C@H]3Cc3ccccc3)cc12` [3-alkylaminoindazole cyclic urea, (H)] displayed an inhibitory constant (Ki) of under 0.01 nM.
Under `CCCNc1[nH]nc2ccc(CN3C(=O)N(Cc4ccc5n[nH]c(NCCC)c5c4)[C@H](Cc4ccccc4)[C@H](O)[C@@H](O)[C@H]3Cc3ccccc3)cc12` [3-alkylaminoindazole cyclic urea, (n-Pr)] stands 0.23 nM.
As for `CCCCCCN1C(=O)N(Cc2ccc3[nH]nc(N)c3c2)[C@H](Cc2ccccc2)[C@H](O)[C@@H](O)[C@H]1Cc1ccccc1` [n-Hexyl cyclic urea], the figure is 0.13 nM; as for `CNc1[nH]nc2ccc(CN3C(=O)N(Cc4ccc5n[nH]c(NC)c5c4)[C@H](Cc4ccccc4)[C@H](O)[C@@H](O)[C@H]3Cc3ccccc3)cc12` [3-alkylaminoindazole cyclic urea, (Me)], 0.018 nM.
As for `Nc1n[nH]c2ccc(CN3C(=O)N(Cc4ccccc4)[C@H](Cc4ccccc4)[C@H](O)[C@@H](O)[C@H]3Cc3ccccc3)cc12` [DMP850], the figure is 0.031 nM; as for `Nc1n[nH]c2ccc(CN3C(=O)N(CC4CC4)[C@H](Cc4ccccc4)[C@H](O)[C@@H](O)[C@H]3Cc3ccccc3)cc12` [Cyclopropylmethyl cyclic urea], 0.02 nM; as for `Nc1n[nH]c2ccc(CN3C(=O)N(Cc4ccc5ccccc5c4)[C@H](Cc4ccccc4)[C@H](O)[C@@H](O)[C@H]3Cc3ccccc3)cc12` [2-Naphthylmethyl cyclic urea], 0.023 nM.
On to `CCNc1[nH]nc2ccc(CN3C(=O)N(Cc4ccc5n[nH]c(NCC)c5c4)[C@H](Cc4ccccc4)[C@H](O)[C@@H](O)[C@H]3Cc3ccccc3)cc12` [3-alkylaminoindazole cyclic urea, (Et)], for which the Ki was determined as 0.041 nM.

The values above are taken from BindingDB's records for doi:10.1016/s1074-5521(98)90117-x (Dupont Pharmaceuticals, 1998).
